Laboratory results as given in BindingDB's records for doi:10.1021/np500581m (Institute of Microbial Chemistry (Bikaken), 2015).

Assay: Induction of p53-dependent growth suppression of human LNZTA3 cells after 72 hrs by MTT assay

CCCCC[C@H](O[C@@H]1O[C@@H]([C@H](O)CO)[C@H](O)[C@H]1O)c1c(O)cc2c(c1O)C(=O)c1c(O)cc(O)cc1C2=O
IC50: 6.2 µM

CCCCC[C@H](O[C@@H]1O[C@@H]([C@H](O)CO)[C@H](O)[C@H]1OC(C)=O)c1c(O)cc2c(c1O)C(=O)c1c(O)cc(O)cc1C2=O
IC50: 6.2 µM
